Assay results taken from patent publication US20230140983A1, “PYRIDAZINE DERIVATIVES FOR MODULATING NUCLEIC ACID SPLICING” (REMIX THERAPEUTICS INC., priority 2020, published 2023).
Where a name gives a salt, the structure may show the parent alone. Read-outs that look alike come from different tables or passages of the source.

Experiments:
Format in all cases: cell-based
HTT [1] = experiment: Gene panel canonical junction qPCR assay, HTT CJ mRNA; settings: Table 9, CJ mRNA decrease, read-out: HTT IC50 (decrease in CJ mRNA levels)
Procedure: (§1) To set up 10 uL RT-qPCR reactions, cell lysates were transferred to 384-well qPCR plates containing the master mix according to the table below. The plates were sealed, gently vortexed, and spun down before the run. The volumes were adjusted accordingly in some instances where the reaction was carried in 20 uL. The table below summarizes the components of the RT-qPCR reactions:
(§2) The RT-qPCR reaction was performed using a QuantStudio (ThermoFisher) under the following fast cycling conditions. All samples and standards were analyzed at least in duplicate. In some instances, bulk room temperature (RT) step of 5-10 minutes was completed for all plates before proceeding with qPCR. The table below summarizes the PCR cycle:
(§3) The data analysis was performed by first determining the ΔCt vs the housekeeper gene. This ΔCt was then normalized against the DMSO control (ΔΔCt) and converted to RQ (relative quantification) using the 2^(−ΔΔCt) equation. The RQ were then converted to a percentage response by arbitrarily setting an assay window of 3.5 ΔCt for HTT-CJ and an assay window of 9 ΔCt for HTT-AJ. […] The percentage response was then fitted to the 4 parametric logistic equation to evaluate the concentration dependence of compound treatment. The increase in AJ mRNA is reported as AC50 (compound concentration having 50% response in AJ increase) while the decrease in CJ mRNA levels is reported as IC50 (compound concentration having 50% response in CJ decrease).
(§4) Additional studies were carried out for a larger panel of genes using the protocol provided above. The junction between flanking upstream and downstream exons was used to design canonical junction qPCR assays. At least one of the forward primer, reverse primer or the CY5-labeled 5′ nuclease probe (with 3′ quencher such as ZEN/Iowa Black FQ) was designed to overlap with the exon junction to capture the CJ mRNA transcript. BLAST was used to confirm the specificity of the probeset and parameters such as melting temperature, GC content, amplicon size, and primer dimer formation are considered during their design. Data for the decrease in CJ mRNA levels for three exemplary genes (HTT, SMN2, and Target C) analyzed in this panel are reported as IC50 (compound concentration having 50% response in CJ decrease).

SMN2 = experiment: Gene panel canonical junction qPCR assay, SMN2 CJ mRNA; settings: Table 9, CJ mRNA decrease, read-out: SMN2 IC50 (decrease in CJ mRNA levels)
Procedure: as §1, §2, §3, §4

Target C = experiment: Gene panel canonical junction qPCR assay, Target C CJ mRNA; settings: Table 9, CJ mRNA decrease, read-out: Target C IC50 (decrease in CJ mRNA levels)
Procedure: as §1, §2, §3, §4

HTT [2] = experiment: Splicing assay (RT-qPCR on cell lysates) monitoring HTT splice variants: AJ and CJ mRNA; settings: concentration having 50% response
Procedure: Example 69: Exemplary Splicing Assay for Monitoring Expression Levels of Splice Variants
as §1, §2, §3

[3] = Table 8, decrease in CJ mRNA, read-out: HTT CJ AC50
[4] = Table 8, increase in AJ mRNA, read-out: HTT AJ AC50

c1nc2c(-c3cn[nH]c3)ccc(-c3ccc(N4C[C@H]5CNC[C@H]5C4)nn3)c2s1 [Compound 194, 7-{6-[(exo)-hexahydro-1H-pyrrolo[3,4-c]pyrrol-2-yl]pyridazin-3-yl}-4-(1H-pyrazol-4-yl)-1,3-benzothiazole hydrochloride]
0.1 to 1 µM: IC50 (SMN2)
1 to 10 µM: IC50 (HTT [1]) | AC50 (HTT [2]; [3])
> 10 µM: IC50 (Target C) | AC50 (HTT [2]; [4])

[2H]C([2H])([2H])N(c1ccc(-c2ccc(-c3cn[nH]c3)c3ncsc23)nn1)C1CCNCC1 [Compound 223, N-(D3)methyl-N-(piperidin-4-yl)-6-[4-(1H-pyrazol-4-yl)-1,3-benzothiazol-7-yl] pyridazin-3-amine]
0.1 to 1 µM: IC50 (SMN2)
1 to 10 µM: IC50 (HTT [1]) | IC50 (Target C) | AC50 (HTT [2]; [3]) | AC50 (HTT [2]; [4])

[2H]C([2H])([2H])N(c1ccc(-c2ccc(-c3cn[nH]c3)c3ncsc23)nn1)[C@@H]1C[C@H]2CC[C@@H](C1)N2 [Compound 210, (exo-)-N-(D3)methyl-N-[6-[4-(1H-pyrazol-4-yl)-1,3-benzothiazol-7-yl]pyridazin-3-yl]-8-azabicyclo [3.2.1]octan-3-amine]
< 0.1 µM: IC50 (HTT [1]) | IC50 (SMN2) | IC50 (Target C) | AC50 (HTT [2]; [3]) | AC50 (HTT [2]; [4])

c1nc2c(-c3cn[nH]c3)ccc(-c3ccc(N4CCCC5(CNC5)C4)nn3)c2s1 [Compound 189]
> 10 µM: IC50 (HTT [1]) | IC50 (SMN2) | IC50 (Target C) | AC50 (HTT [2]; [3]) | AC50 (HTT [2]; [4])

c1nc2c(-c3cn[nH]c3)ccc(-c3ccc(O[C@@H]4C[C@H]5CCC[C@@H](C4)N5)nn3)c2s1 [Compound 209]
0.1 to 1 µM: IC50 (SMN2)
> 10 µM: IC50 (HTT [1]) | IC50 (Target C) | AC50 (HTT [2]; [3]) | AC50 (HTT [2]; [4])

Cc1ncc(-c2ccc(-c3ccc(N(C)C4CC(C)(C)NC(C)(C)C4)nn3)c3ncsc23)o1 [Compound 201]
0.1 to 1 µM: IC50 (SMN2)
1 to 10 µM: IC50 (HTT [1]) | IC50 (Target C) | AC50 (HTT [2]; [3]) | AC50 (HTT [2]; [4])

c1nc2c(-c3cn[nH]c3)ccc(-c3ccc(N[C@@H]4C[C@H]5CC[C@@H](C4)N5)nn3)c2s1 [Compound 202, (exo-)-N-[6-[4-(1H-pyrazol-4-yl)-1,3-benzothiazol-7-yl]pyridazin-3-yl]-8-azabicyclo[3.2.1]octan-3-amine]
< 0.1 µM: IC50 (HTT [1]) | IC50 (SMN2) | AC50 (HTT [2]; [3]) | AC50 (HTT [2]; [4])
0.1 to 1 µM: IC50 (Target C)

[2H]C([2H])([2H])N(c1ccc(-c2ccc(-c3cn[nH]c3)c3ncsc23)nn1)[C@@H]1C[C@H]2CCC[C@@H](C1)N2 [Compound 227]
< 0.1 µM: IC50 (HTT [1]) | IC50 (SMN2) | IC50 (Target C) | AC50 (HTT [2]; [3]) | AC50 (HTT [2]; [4])

c1nc2c(-c3cn[nH]c3)ccc(-c3ccc(NC4CNC4)nn3)c2s1 [Compound 196]
> 10 µM: IC50 (HTT [1]) | IC50 (SMN2) | IC50 (Target C) | AC50 (HTT [2]; [3]) | AC50 (HTT [2]; [4])

c1n[nH]cc1-c1ccc(-c2ccc(OC3CCNCC3)nn2)c2[nH]ncc12 [Compound 230]
> 10 µM: IC50 (HTT [1]) | IC50 (Target C) | AC50 (HTT [2]; [3]) | AC50 (HTT [2]; [4])
1 to 10 µM: IC50 (SMN2)

c1nc2c(-c3cn[nH]c3)ccc(-c3ccc(OC4CCNCC4)nn3)c2s1 [Compound 183]
> 5 µM: AC50 (HTT [2]; Table 7, decrease in CJ mRNA, read-out: HTT CJ AC50) | AC50 (HTT [2]; Table 7, increase in AJ mRNA, read-out: HTT AJ AC50)
0.1 to 1 µM: IC50 (HTT [1]) | IC50 (SMN2) | IC50 (Target C) | AC50 (HTT [2]; [3]) | AC50 (HTT [2]; [4])

c1nc2c(-c3cn[nH]c3)ccc(-c3ccc(N4CCC5(CCCNC5)C4)nn3)c2s1 (stereo not shown) [Compound 191]
> 10 µM: IC50 (HTT [1]) | IC50 (Target C) | AC50 (HTT [2]; [3]) | AC50 (HTT [2]; [4])
1 to 10 µM: IC50 (SMN2)

CN(c1ccc(-c2ccc(-c3cnc(=O)[nH]c3)c3scnc23)nn1)C1CC(C)(C)NC(C)(C)C1 [Compound 179]
0.1 to 1 µM: IC50 (HTT [1]) | IC50 (SMN2) | IC50 (Target C) | AC50 (HTT [2]; [3]) | AC50 (HTT [2]; [4])
